From patent publication US4364958A, “1-Substituted-3-cycloalkyl-sulfonyl-pyrrolidine-2,5-dione derivatives and fungicidal compositions thereof” (Chinoin Gyogyszer es Vegyeszeti Termekek Gyara Rt., priority 1979, dated 1982) come the findings set out here.

Converted amounts (≈) assume the structure as drawn. Where two headings read alike, the source gives them in different places.

Assay in all cases: minimal inhibitory concentration in Sabouraud medium
What all share (format): cell-based

For one assay, the system named is Candida albicans CBS.562. The settings on record: Candida albicans. The source says:
Candida albicans CBS.562 "2"
(§1) As a medium Saboroud medium was employed.

In assay [1] the test system is Trichophyton mentagrophytes CBS.50148. Particulars: Trichophyton mentagrophytes, read-out: minimal inhibitory concentration.
Source text: Trichophyton mentagrophytes CBS.50148
as §1

For assay [2], the system named is Saccharomyces cerevisiae OKI.1282. The settings on record: Saccharomyces cerevisiae.
Source text: Saccharomyces cerevisiae OKI.1282
as §1

The test system of assay [3] is Epidermophyton floccosum OKI/IV. Particulars: Epidermophyton floccosum, read-out: minimal inhibitory concentration.
Source text: Epidermophyton floccosum OKI/IV.
as §1

For assay [4], the system named is Trichophyton rubrum CBS.30338. Particulars: Trichophyton rubrum.
Source text: Trichophyton rubrum CBS.30338
as §1

In assay [5] the test system is Aspergillus niger CBS.12648. Particulars: Aspergillus niger.
Source text: Aspergillus niger CBS.12648
as §1

Assay [6] relates to Penicillium digitatum CBS.31948. The settings on record: Penicillium digitatum.
Source text: Penicillium digitatum CBS.31948
as §1

For assay [7], the system named is Sporotrichum schenkii CBS.34035. The settings on record: Sporotrichum.
Source text: Sporotrichum schenkii CBS.34035
as §1

On to `CC(=O)c1ccc(N2C(=O)CC(S(=O)(=O)C3CCCCC3)C2=O)cc1` (stereo not shown) [1-(4-acetylphenyl)-3-cyclohexyl-sulfonyl-pyrrolidine-2,5-dione], for which the MIC was 50 µg/mL (≈ 138 µM) in the assay on Candida albicans CBS.562 (CBS.562, 24 h, 24 hours); 75 µg/mL (≈ 206 µM) in the assay on Candida albicans CBS.562 (CBS.562, 48 h, 48 hours); 10 µg/mL (≈ 27.5 µM) in assay [1] (CBS.50148, 72 h, 72 hours); 25 µg/mL (≈ 68.8 µM) in assay [1] (CBS.50148, 144 h, 144 hours); 25 µg/mL (≈ 68.8 µM) in assay [1] (CBS.50148, 288 h, 288 hours); 25 µg/mL (≈ 68.8 µM) in assay [2] (OKI.1282, 24 h, 24 hours). In addition, the MIC in assay [2] (OKI.1282, 48 h, 48 hours) stood at 50 µg/mL (≈ 138 µM); in assay [3] (72 h), 25 µg/mL (≈ 68.8 µM); in assay [3] (144 h), 50 µg/mL (≈ 138 µM); in assay [3] (288 h), 75 µg/mL (≈ 206 µM); in assay [4] (CBS.30338, 72 h, 72 hours), 10 µg/mL (≈ 27.5 µM); in assay [4] (CBS.30338, 144 h, 144 hours) it was 25 µg/mL (≈ 68.8 µM). For the same molecule, the MIC turned out to be 50 µg/mL (≈ 138 µM) in assay [4] (CBS.30338, 288 h, 288 hours); 75 µg/mL (≈ 206 µM) in assay [5] (CBS.12648, 72 h, 72 hours); 150 µg/mL (≈ 413 µM) in assay [5] (CBS.12648, 144 h, 144 hours); 150 µg/mL (≈ 413 µM) in assay [5] (CBS.12648, 288 h, 288 hours); 75 µg/mL (≈ 206 µM) in assay [6] (CBS.31948, 72 h, 72 hours); 100 µg/mL (≈ 275 µM) in assay [6] (CBS.31948, 144 h, 144 hours). Moreover, the MIC in assay [6] (CBS.31948, 288 h, 288 hours) is 150 µg/mL (≈ 413 µM); in assay [7] (CBS.34035, 72 h, 72 hours), 5 µg/mL (≈ 13.8 µM); in assay [7] (CBS.34035, 144 h, 144 hours), 25 µg/mL (≈ 68.8 µM); in assay [7] (CBS.34035, 288 h, 288 hours), 25 µg/mL (≈ 68.8 µM).
With `O=C1CC(S(=O)(=O)C2CCCCC2)C(=O)N1c1ccccc1Cl` (stereo not shown) [1-(2-chlorophenyl)-3-cyclohexyl-sulfonyl-pyrrolidine-2,5-dione], the MIC was 50 µg/mL (≈ 141 µM) in the assay with Candida albicans CBS.562 (CBS.562, 24 h, 24 hours); 50 µg/mL (≈ 141 µM) in the assay on Candida albicans CBS.562 (CBS.562, 48 h, 48 hours); 2.5 µg/mL (≈ 7.03 µM) in assay [1] (CBS.50148, 72 h, 72 hours); 5 µg/mL (≈ 14.1 µM) in assay [1] (CBS.50148, 144 h, 144 hours); 5 µg/mL (≈ 14.1 µM) in assay [1] (CBS.50148, 288 h, 288 hours); 25 µg/mL (≈ 70.3 µM) in assay [2] (OKI.1282, 24 h, 24 hours). Also, the MIC was found to be 75 µg/mL (≈ 211 µM) in assay [2] (OKI.1282, 48 h, 48 hours); 2.5 µg/mL (≈ 7.03 µM) in assay [3] (72 h); 5 µg/mL (≈ 14.1 µM) in assay [3] (144 h); 10 µg/mL (≈ 28.1 µM) in assay [3] (288 h); 2.5 µg/mL (≈ 7.03 µM) in assay [4] (CBS.30338, 72 h, 72 hours); 10 µg/mL (≈ 28.1 µM) in assay [4] (CBS.30338, 144 h, 144 hours). For the same molecule, the MIC in assay [4] (CBS.30338, 288 h, 288 hours) came to 10 µg/mL (≈ 28.1 µM); in assay [5] (CBS.12648, 72 h, 72 hours) it was 50 µg/mL (≈ 141 µM); in assay [5] (CBS.12648, 144 h, 144 hours), 150 µg/mL (≈ 422 µM); in assay [5] (CBS.12648, 288 h, 288 hours), 150 µg/mL (≈ 422 µM); in assay [6] (CBS.31948, 72 h, 72 hours) it was 25 µg/mL (≈ 70.3 µM); in assay [6] (CBS.31948, 144 h, 144 hours), 50 µg/mL (≈ 141 µM). The MIC is 50 µg/mL (≈ 141 µM) in assay [6] (CBS.31948, 288 h, 288 hours); 10 µg/mL (≈ 28.1 µM) in assay [7] (CBS.34035, 72 h, 72 hours); 50 µg/mL (≈ 141 µM) in assay [7] (CBS.34035, 144 h, 144 hours); 50 µg/mL (≈ 141 µM) in assay [7] (CBS.34035, 288 h, 288 hours).
Consider `O=C1CC(S(=O)(=O)C2CCCCC2)C(=O)N1c1ccc([N+](=O)[O-])cc1` (stereo not shown) [1-(p-nitrophenyl)-3-cyclohexylsulfonyl-pyrrolidine-2,5-dione], for which the MIC against Candida albicans CBS.562 (CBS.562, 24 h, 24 hours) stood at 75 µg/mL (≈ 205 µM); in the assay with Candida albicans CBS.562 (CBS.562, 48 h, 48 hours), 150 µg/mL (≈ 409 µM); in assay [1] (CBS.50148, 72 h, 72 hours), 75 µg/mL (≈ 205 µM); in assay [1] (CBS.50148, 144 h, 144 hours), 100 µg/mL (≈ 273 µM); in assay [1] (CBS.50148, 288 h, 288 hours), 100 µg/mL (≈ 273 µM); in assay [2] (OKI.1282, 24 h, 24 hours), 25 µg/mL (≈ 68.2 µM). Moreover, the MIC in assay [2] (OKI.1282, 48 h, 48 hours) came out at 50 µg/mL (≈ 136 µM); in assay [3] (72 h), 100 µg/mL (≈ 273 µM); in assay [3] (144 h), 150 µg/mL (≈ 409 µM); in assay [3] (288 h), 150 µg/mL (≈ 409 µM); in assay [4] (CBS.30338, 72 h, 72 hours), 75 µg/mL (≈ 205 µM); in assay [4] (CBS.30338, 144 h, 144 hours) it was 75 µg/mL (≈ 205 µM). The MIC in assay [4] (CBS.30338, 288 h, 288 hours) was 150 µg/mL (≈ 409 µM); in assay [5] (CBS.12648, 72 h, 72 hours) it was 75 µg/mL (≈ 205 µM); in assay [5] (CBS.12648, 144 h, 144 hours), 150 µg/mL (≈ 409 µM); in assay [5] (CBS.12648, 288 h, 288 hours), 150 µg/mL (≈ 409 µM); in assay [6] (CBS.31948, 72 h, 72 hours), 100 µg/mL (≈ 273 µM); in assay [6] (CBS.31948, 144 h, 144 hours) it was 150 µg/mL (≈ 409 µM). The MIC came out at 150 µg/mL (≈ 409 µM) in assay [6] (CBS.31948, 288 h, 288 hours); 25 µg/mL (≈ 68.2 µM) in assay [7] (CBS.34035, 72 h, 72 hours); 25 µg/mL (≈ 68.2 µM) in assay [7] (CBS.34035, 144 h, 144 hours); 25 µg/mL (≈ 68.2 µM) in assay [7] (CBS.34035, 288 h, 288 hours).
Turning to `O=C1CC(S(=O)(=O)C2CCCCC2)C(=O)N1c1cccc(Cl)c1` (stereo not shown) [1-(m-chlorphenyl)-3-cyclohexylsulfonyl-pyrrolidine-2,5-dione], the MIC against Candida albicans CBS.562 (CBS.562, 24 h, 24 hours) turned out to be 25 µg/mL (≈ 70.3 µM); in the assay on Candida albicans CBS.562 (CBS.562, 48 h, 48 hours) it was 75 µg/mL (≈ 211 µM); in assay [1] (CBS.50148, 72 h, 72 hours) it was 2.5 µg/mL (≈ 7.03 µM); in assay [1] (CBS.50148, 144 h, 144 hours), 2.5 µg/mL (≈ 7.03 µM); in assay [1] (CBS.50148, 288 h, 288 hours), 2.5 µg/mL (≈ 7.03 µM); in assay [2] (OKI.1282, 24 h, 24 hours), 10 µg/mL (≈ 28.1 µM). Further, the MIC is 25 µg/mL (≈ 70.3 µM) in assay [2] (OKI.1282, 48 h, 48 hours); 2.5 µg/mL (≈ 7.03 µM) in assay [3] (72 h); 5 µg/mL (≈ 14.1 µM) in assay [3] (144 h); 10 µg/mL (≈ 28.1 µM) in assay [3] (288 h); 2.5 µg/mL (≈ 7.03 µM) in assay [4] (CBS.30338, 72 h, 72 hours); 2.5 µg/mL (≈ 7.03 µM) in assay [4] (CBS.30338, 144 h, 144 hours). Also, the MIC in assay [4] (CBS.30338, 288 h, 288 hours) came out at 2.5 µg/mL (≈ 7.03 µM); in assay [5] (CBS.12648, 72 h, 72 hours) it was 50 µg/mL (≈ 141 µM); in assay [5] (CBS.12648, 144 h, 144 hours), 100 µg/mL (≈ 281 µM); in assay [5] (CBS.12648, 288 h, 288 hours) it was 100 µg/mL (≈ 281 µM); in assay [6] (CBS.31948, 72 h, 72 hours), 10 µg/mL (≈ 28.1 µM); in assay [6] (CBS.31948, 144 h, 144 hours) it was 50 µg/mL (≈ 141 µM). In addition, the MIC in assay [6] (CBS.31948, 288 h, 288 hours) is 50 µg/mL (≈ 141 µM); in assay [7] (CBS.34035, 72 h, 72 hours), 10 µg/mL (≈ 28.1 µM); in assay [7] (CBS.34035, 144 h, 144 hours), 25 µg/mL (≈ 70.3 µM); in assay [7] (CBS.34035, 288 h, 288 hours), 25 µg/mL (≈ 70.3 µM).
